According to patent US20090176817A1, “Method of Treatment of Diarrhea-Predominant Irritable Bowel Syndrome in a Subject” (priority 2005, published 2009):
Read-outs that look alike come from different tables or passages of the source.

What was measured:
[1] = clinical; conditions: human, in vivo
Experimental: The single- and multiple-dose pharmacokinetics of cilansetron at oral doses of 4 mg and 8 mg were evaluated in a randomized, double-blind, placebo controlled, parallel group study in 32 male subjects (14 subjects received 4 mg cilansetron, 14 received 8 mg cilansetron, and 4 received placebo). Subjects received a single dose of cilansetron at their assigned dose on the first day of the study (Day 1), followed by a 7-day washout, after which they received cilansetron TID at their assigned dose for 6 days and a single dose on the morning of the seventh day (Day 14). Morning doses on all days were administered under fasted conditions. […] Renal excretion of cilansetron was negligible following single and multiple dosing at both doses, with less than 1% of the dose excreted unchanged in urine.

[2] = tested on: healthy subjects; conditions: in vivo
Experimental: In a randomized, double-blind, placebo-controlled, 2-way crossover study in 9 male and 9 female healthy subjects (ITT population, aged 21-39 years), subjects were randomized to receive 2 treatments (cilansetron 16 mg tablet and placebo) during the 2 treatment periods. During each treatment period, subjects received a single dose of their assigned treatment on the first day (Day 1), after which they received the same treatment TID for 4 days (Days 2-5). There was a 10-day washout period between treatment periods. Subjects were fasted for at least 2 hours before and following each dose, and heavy physical activity was restricted. Serial 12-lead ECGs was recorded up to 24 hours following dosing on Day 1 (single dose) and on the last day (Day 5) of each treatment period. Heart rate and ECG intervals (RR, PR, QRS, and QT) were measured electronically, but were manually verified and corrected if needed by the investigator. QT intervals were corrected (QTc) electronically for heart rate using the Bazett's correction. Mean and maximum QTc intervals were calculated over different time intervals postdose and were compared between treatments using an ANOVA accounting for sequence, gender, subject within sequence and gender, period, and treatment effects.

[3] = tested on: diarrhea-predominant IBS subjects; format: in vivo, human; conditions: for Percentage of Subjects Who Worsened from Baseline: Daily Abdominal Pain / Percentage of Subjects Who Worsened from Baseline: Daily Urgency: S241.3.009, observed value
Description: The primary efficacy parameter was the overall response rate for IBS symptoms, based on the weekly question concerning adequate relief of IBS symptoms (abdominal pain/discomfort, abnormal bowel habits) over the 26 weeks period. A responder was a subject who responded “yes” at least 50% of the time during his/her treatment period, with minimum treatment duration of four weeks. The two main secondary efficacy parameters were overall responder rate based on the weekly question on adequate relief of abdominal pain/discomfort and abnormal bowel habits during the 26-week treatment period. The onset of action of cilansetron was also examined using daily diary data (stool frequency, and ratings of urgency and severity) during the initial 8 weeks of trial participation. An additional key secondary efficacy parameter was the number of months (one month equals four weeks) up to six months (24-weeks) that a subject was a responder for IBS symptoms, where a responder was defined as a subject who answered the weekly question with “yes” at least twice for that month. The responder rate for the weekly diary questions on adequate relief at each month and all months, the adequate relief rate, the number of subjects with adequate relief by week, daily diary questions, IBS-QOL scores, and the interruption of activities were also assessed. Safety was evaluated by physical examination, ECG, vital signs, laboratory evaluations, concomitant medications, and AEs.
Studies S24 1.3.OO6, S24 1.3.0 1 1, and S24 1.3.009 used the following efficacy measurements: • The subjects answered the following three questions with “yes” or “no” using a phone diary at the end of each week: • a) During the last week, did you experience adequate relief of your IBS symptoms, such as abdominal pain, abdominal discomfort, abnormal bowel habits? • b) During the last week, did you experience adequate relief of your abdominal pain and/or discomfort? • c) During the last week, did you experience adequate relief of your abnormal bowel habits? • The subjects rated the following symptoms using the phone diary at the end of each day: • abdominal pain/discomfort (five-point scale); • stool consistency (seven-point Bristol Stool Scale); • stool frequency (number of bowel movements each day); • urgency (five-point scale); • straining (yes or no); • feeling of incomplete defecation (yes or no); • bloating or feeling of abdominal distension (five-point scale). • In Studies S241 A006 and S241.3.009, subjects completed the IBS-QOL Survey at Baseline (Day 1) and at the end of treatment. In Study S24 1.3.0 1 1, subjects completed the IBS-QOL Survey at Baseline (Day 1), at the end of the three-month treatment period, and at the end of rerandomized treatment.
Other secondary efficacy parameters for all three studies included: • Responder rate for the weekly diary questions on adequate relief at each month, where a responder for a month (monthly responder) was defined as a subject who answered the weekly question with “yes” at least twice for that month. The responder rate was the percentage of responders within a treatment group. The all-month responder rate for the weekly diary questions on adequate relief was also evaluated, where an all-month responder was defined as a subject who answered the weekly question with “yes” at least twice for each month. […]

[4] = tested on: IBS patients; assay: Study K.241.5016: colonic visceral perception; format: in vivo, human
Experimental: The effect of cilansetron on colonic visceral perception was evaluated in a randomized, doubleblind, placebo-controlled, 2-way crossover study in 16 male and female IBS patients (ITT population), aged 28-66 years. Subjects received single IV doses of placebo or cilansetron 16 mg as 30-minute infusions on two consecutive study days, with no washout between the study days. Colonic distension tests were performed just prior to dosing and after completion of the infusion during each treatment. An electronic barostat was used to produce distensions (successive 4 mmHg increases every 5 minutes, up to a sensation of abdominal pain or a maximum of 40 mmHg). The primary efficacy parameter was the mean distension pressure inducing a sensation of abdominal pain. Secondary effect parameters were the mean distension pressure inducing a sensation of abdominal discomfort, and the response rate, defined as the number of patients experiencing no abdominal pain at the maximum pressure of 40 mmHg. The primary and secondary parameters were compared between cilansetron and placebo treatments using an ANOVA.

[5] = 16 mg single IV dose, ANOVA, not significant
[6] = 16 mg single IV dose, postdose minus predose, IBS patients, mean (SD)

In the case of `Cc1nccn1C[C@H]1CCc2c(c3cccc4c3n2CCC4)C1=O` [Cilansetron, (R)-(−)-4,5,6,8,9,10-hexahydro-10-[(2-methyl-1H-imidazol-1-yl)methyl]-11H-pyrido-[3,2,1-jk]-carbazol-11-one], the CL/F ([1]; 4 mg) is reported as 3226 (51) mL/min, the CL/F ([1]; 8 mg) is reported as 3559 (62) mL/min and the “Dose excreted unchanged in urine” value ([1]; male) is reported as “less than 1%”. For the same compound, the “Intersubject % CV for AUC and Cmax” value ([1]; male) was 36-82%, the “Intrasubject % CV on AUC” value ([1]; male) was 33-55% and the CLr ([1]; male, 4 mg) was 7.47 (143) mL/min. The DN-AUC ([1]; male, 4 mg) was 6.08 (36) ng · h/mL, the DN-Cmax ([1]; male, 4 mg) was 2.21 (37) ng/mL and the Vd/F ([1]; male, 4 mg) was 406 L. For the same compound, the AUC ([1]; male, 4 mg) was 24.3 ng·h/mL, the Cmax ([1]; male, 4 mg) was 8.83 ng/mL and the Tmax ([1]; male, 4 mg) was 1.38 h. For the same compound, the half-life ([1]; male, 4 mg, T½) was 1.55 h, the DN-AUC ([1]; male, 8 mg) was 6.55 (69) ng · h/mL and the DN-Cmax ([1]; male, 8 mg) was 2.89 (61) ng/mL. The Vd/F ([1]; male, 8 mg) was 483 L, the AUC ([1]; male, 8 mg) was 52.4 ng·h/mL and the CL renal ([1]; male, 8 mg, CLr) was 4.68 mL/min. For the same compound, the Cmax ([1]; male, 8 mg) was 23.1 ng/mL, the Tmax ([1]; male, 8 mg) was 1 h and the half-life ([1]; male, 8 mg, T½) was 1.92 h. The half-life ([1]; male, Mean half-life) was 1.6 to 1.9 h, the “Effect on mean or maximum QTc interval (Bazett's correction)” value [2] was “no effect” and the “Mean number of stools per day at end of treatment” value ([3]; 2 mg TID) was 1.96 stools per day. The Stools per day ([3]; Day 2 of treatment) was 2.97 stools per days, the “Median rate of pain-free days” value ([3]; Month 1 to Month 3) was 0.13 and the “Median rate of urgency-free days” value ([3]; Month 1 to Month 3) was 0.05. For the same compound, the “Median rate of pain-free days” value ([3]; Month 4 to Month 6) was 0.31, the “Median rate of urgency-free days” value ([3]; Month 4 to Month 6) was 0.10 and the “Percentage of Subjects Who Worsened from Baseline: Daily Abdominal Pain” value (“Percentage … Daily Abdominal Pain” below) ([3]; Weeks 1-2, 2 mg TID) was 13%. The “Percentage of Subjects Who Worsened from Baseline: Daily Urgency” value (“Percentage … Daily Urgency” for short) ([3]; Weeks 1-2, 2 mg TID) was 7%, the “Percentage … Daily Abdominal Pain” value ([3]; Weeks 3-4, 2 mg TID) was 8% and the “Percentage … Daily Urgency” value ([3]; Weeks 3-4, 2 mg TID) was 5%. The “Percentage … Daily Abdominal Pain” value ([3]; Weeks 5-6, 2 mg TID) was 8%, the “Percentage … Daily Urgency” value ([3]; Weeks 5-6, 2 mg TID) was 5% and the “Percentage … Daily Abdominal Pain” value ([3]; Weeks 7-8, 2 mg TID) was 7%. The “Percentage … Daily Urgency” value ([3]; Weeks 7-8, 2 mg TID) was 4%, the “Percentage … Daily Abdominal Pain” value ([3]; Weeks 9-10, 2 mg TID) was 4% and the “Percentage … Daily Urgency” value ([3]; Weeks 9-10, 2 mg TID) was 6%. For the same compound, the “Percentage … Daily Abdominal Pain” value ([3]; Weeks 11-12, 2 mg TID) was 7%, the “Percentage … Daily Urgency” value ([3]; Weeks 11-12, 2 mg TID) was 4% and the “Percentage … Daily Abdominal Pain” value ([3]; Weeks 13-26, 2 mg TID) was 6-8%. The “Percentage … Daily Urgency” value ([3]; Weeks 13-26, 2 mg TID) was 5-8%, the “Subjects worsened from Baseline, daily abdominal pain” value ([3]; Weeks 1-2) was 13% and the “Subjects worsened from Baseline, daily urgency” value ([3]; Weeks 1-2) was 7%. The “Bloating or abdominal distention score, change from Baseline at end of treatment” value ([3]; in vivo) was −0.75, the “Daily abdominal pain/discomfort score, change from Baseline at end of treatment” value ([3]; in vivo) was −0.92 and the “Daily stool consistency score, change from Baseline at end of treatment” value ([3]; in vivo) was −1.40. For the same compound, the “Daily urgency score, change from Baseline at end of treatment” value ([3]; in vivo) was −0.80, the “Feeling of incomplete evacuation, change from Baseline at end of treatment” value ([3]; in vivo) was −0.25 and the “Mean stool consistency score at end of treatment” value ([3]; in vivo) was 4.27. The “Mean straining, change from Baseline at end of treatment” value ([3]; in vivo) was 0.06, the “Pain-free days at end of treatment” value ([3]; in vivo) was 0.29 and the “Stools per day, change from Baseline at end of treatment” value ([3]; in vivo) was −1.60. For the same compound, the “Urgency-free days at end of treatment” value ([3]; in vivo) was 0.08, the “Median rate of pain-free days” value ([3]; six-month period) was 0.19 and the “Median rate of urgency-free days” value ([3]; six-month period) was 0.07. The “Responders (no abdominal pain at 40 mmHg)” value ([4]; 16 mg IV) was 1 of 12, the “Pressure inducing abdominal pain, Mean Difference to Placebo” value [4, 5] was −1.33 mmHg and the “Pressure inducing abdominal sensation, Mean Difference to Placebo” value [4, 5] was −0.67 mmHg. For the same compound, the “Pressure inducing abdominal pain, Difference Postdose” value [4, 6] was 3.67 (4.66) mmHg and the “Pressure inducing abdominal sensation, Difference Postdose” value [4, 6] was 2.67 (3.55) mmHg.
